Data published in the supplement of paper PMC10307832.

What was measured:
Assay in all cases: relative viability (nuclei count vs DMSO), 5 days (fraction); higher = more cells survive
Neratinib + Decitabine = compound: CCOc1cc2ncc(C#N)c(Nc3ccc(OCc4ccccn4)c(Cl)c3)c2cc1NC(=O)/C=C/CN(C)C [Neratinib] + Nc1ncn([C@H]2C[C@H](O)[C@@H](CO)O2)c(=O)n1 [Decitabine] (partner 2 µM)
Outline: (§1)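 Each reported value is a median over duplicate plates. It expresses relative viability: treated-well nuclei count divided by vehicle-well nuclei count. Lung cancer cell lines in 1536-well plates were dosed by pin tool a day after seeding, alone with one drug or with a fixed anchor-drug dose plus five library-drug doses (not always all listed) in √10 steps, and nuclei were counted after 5 days.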

Neratinib + Crizotinib = compound: CCOc1cc2ncc(C#N)c(Nc3ccc(OCc4ccccn4)c(Cl)c3)c2cc1NC(=O)/C=C/CN(C)C [Neratinib] + C[C@@H](Oc1cc(-c2cnn(C3CCNCC3)c2)cnc1N)c1c(Cl)ccc(F)c1Cl [Crizotinib] (partner 1 µM)
Outline: as §1

Neratinib + Phenformin = compound: CCOc1cc2ncc(C#N)c(Nc3ccc(OCc4ccccn4)c(Cl)c3)c2cc1NC(=O)/C=C/CN(C)C [Neratinib] + N=C(N)NC(=N)NCCc1ccccc1 [Phenformin] (partner 250 µM)
Outline: as §1

Neratinib + Navitoclax = compound: CCOc1cc2ncc(C#N)c(Nc3ccc(OCc4ccccn4)c(Cl)c3)c2cc1NC(=O)/C=C/CN(C)C [Neratinib] + CC1(C)CCC(c2ccc(Cl)cc2)=C(CN2CCN(c3ccc(C(=O)NS(=O)(=O)c4ccc(N[C@H](CCN5CCOCC5)CSc5ccccc5)c(S(=O)(=O)C(F)(F)F)c4)cc3)CC2)C1 [Navitoclax] (partner 0.5 µM)
Outline: as §1

Cell Line	relative viability (Neratinib + Decitabine; first compound 0.01 µM)	relative viability (Neratinib + Decitabine; first compound 0.03162 µM)	relative viability (Neratinib + Decitabine; first compound 0.1 µM)	relative viability (Neratinib + Decitabine; first compound 0.3162 µM)	relative viability (Neratinib + Decitabine; first compound 1 µM)	relative viability (Neratinib + Crizotinib; first compound 0.01 µM)	relative viability (Neratinib + Crizotinib; first compound 0.03162 µM)	relative viability (Neratinib + Crizotinib; first compound 0.1 µM)	relative viability (Neratinib + Crizotinib; first compound 0.3162 µM)	relative viability (Neratinib + Crizotinib; first compound 1 µM)	relative viability (Neratinib + Phenformin; first compound 0.01 µM)	relative viability (Neratinib + Phenformin; first compound 0.03162 µM)	relative viability (Neratinib + Phenformin; first compound 0.1 µM)	relative viability (Neratinib + Phenformin; first compound 0.3162 µM)	relative viability (Neratinib + Phenformin; first compound 1 µM)	relative viability (Neratinib + Navitoclax; first compound 0.01 µM)	relative viability (Neratinib + Navitoclax; first compound 0.03162 µM)	relative viability (Neratinib + Navitoclax; first compound 0.1 µM)	relative viability (Neratinib + Navitoclax; first compound 0.3162 µM)	relative viability (Neratinib + Navitoclax; first compound 1 µM)
NCI-H1355	0.343	0.326	0.337	0.372	0.341	1.12	1.11	0.949	0.846	0.31	0.485	0.433	0.408	0.417	0.427	0.912	1.06	0.825	0.843	0.618
NCI-H1437	0.539	0.521	0.582	0.58	0.661	1.04	0.853	0.897	0.789	0.822	0.351	0.284	0.281	0.243	0.29	1.14	1.12	1.05	1	1.05
NCI-H1650	0.398	0.474	0.474	0.472	0.613	0.922	1.03	0.705	0.568	0.623	0.464	0.422	0.311	0.302	0.271	1.26	1.35	1.1	1.07	1.06
NCI-H1651	0.63	0.663	0.391	0.585	0.543	0.927	0.944	0.86	0.846	0.564	0.332	0.383	0.339	0.27	0.32	1.2	1.17	0.878	0.84	0.742
NCI-H1666			0.747	0.612	0.604	1.29	1.13	0.579	0.595	0.566	0.616	0.573	0.519	0.54	0.593	0.971		0.685	0.311	0.347
NCI-H1734	0.539	0.579		0.54	0.481	0.838	0.722	0.535	0.646	0.446	0.428	0.429	0.382	0.412	0.32	0.902	1.02	0.789	0.818	0.557
NCI-H1755	0.728	0.715	0.718	0.805	0.858	0.873	0.919	0.752	0.912	0.476	0.641	0.657	0.535	0.593	0.577	1.06			1.02	0.469
NCI-H1792	0.731	0.576	0.503	0.516	0.546	1.1	1.09	0.931	0.867	0.872	0.298	0.2	0.292	0.261	0.26	0.622	0.833	0.612		0.591
NCI-H1915	0.262	0.271	0.251	0.241	0.286	0.973	0.931	0.864	0.811	0.725	0.383	0.384	0.228	0.354	0.39	0.764	0.862	0.757	0.736	0.744
NCI-H1944	0.458	0.482	0.423	0.389	0.39	1.31	0.991	0.99	0.762	0.348	0.237	0.202	0.192	0.176	0.174	1.03	1	0.871	0.814	0.677
NCI-H1975	0.36	0.444	0.351	0.346	0.19	1.14	1.05	0.752	0.442	0.193	0.434	0.446	0.403	0.211	0.161	1.26	1.33	0.788	0.394	0.238
NCI-H1993	0.643	0.628	0.272	0.484	0.578	0.859	0.901	0.586	0.771	0.677	0.365	0.523	0.533	0.626	0.567	0.911	0.986	0.815	0.651	0.574
NCI-H2009	0.358	0.396	0.342	0.447	0.387	1.02	1.05	0.524	0.946	0.783	0.482	0.509	0.484	0.389	0.303	1.13	1.23	1.12	1.13	0.999
NCI-H2023	0.245	0.232	0.206	0.217	0.376	0.642	0.523	0.484	0.419	0.287	0.434	0.451	0.362	0.323	0.298	0.987	1.04	0.909	0.943	0.699
NCI-H2085	0.595	0.547	0.542	0.485	0.516	0.992	0.928	0.823	0.664	0.483	0.795	0.683	0.708	0.567	0.437	1.18	1.14		0.88	0.804
NCI-H2087	0.272	0.333	0.239	0.254	0.215	1.02	1.03		0.978	0.667	0.493	0.567	0.391	0.415	0.234	1.04	0.896		1	0.444
